Laboratory results: patent US10570117B2, “Phenylimidazole compound” (Otsuka Pharmaceutical Factory, Inc., priority 2015, dated 2020)
≈ marks a conversion by molar mass, not a printed value. Like-named read-outs stand apart in the source and are kept apart here.

How the values were obtained:
[1] = system: lipoprotein lipase (LPL) gene; assay: LPL mRNA elevating action (RT-PCR quantification of LPL mRNA in C2Cl2 cells); format: cell-based, mouse; details: Mus musculus, 24 h, compound 10 μM, ratio relative to the amount of LPL mRNA in cells with DMSO only, read-out: Rate of increase in LPL mRNA
Summary of the method: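 Mouse striated-muscle C2Cl2 cells in DMEM with 10% FBS exposed to compounds at 10 μM for 24 h. LPL mRNA quantified by RT-PCR and real-time PCR (20 cycles), expressed as ratio to DMSO-only cells set at 1.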

[2] = Solubility in gastric juice or intestinal juice model fluid (precipitation method using DMSO); format: physicochemical; details: room temperature
Summary of the method: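 Compound in DMSO added to JP disintegration test fluid 1 (pH 1.2) or fluid 2 (pH 6.8) and shaken 24 h at room temperature. After filtration, dissolved concentration (μg/mL) determined by UV absorbance against compound calibration curves.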

[3] = pH 1.2, simulated gastric fluid, kinetic from dmso stock, 1st fluid for Disintegration Test of Japanese Pharmacopoeia (pH: 1.2), read-out: Solubility (μg/mL) 1st fluid
[4] = pH 6.8, kinetic from dmso stock, 2nd fluid for Disintegration Test of Japanese Pharmacopoeia (pH: 6.8), read-out: Solubility (μg/mL) 2nd fluid

solubility at 24 h [2, 3] | solubility at 24 h [2, 4] | melting point | Solubility (μg/mL) 1st fluid ([2]; 1st fluid for Disintegration Test of Japanese Pharmacopoeia (pH: 1.2), 24 hours) | Compound | fold induction at 10 µM [1]
7.8 µg/mL (≈ 17 µM) | < 8.1 µg/mL | 199 to 201 °C (dec.) |  | COc1cc(OCc2ccc(C(F)(F)F)nc2)c(C)cc1-c1cnc(-c2ccc(F)nc2)[nH]1 [Example 15] | 4.27
63.8 µg/mL (≈ 127 µM) | < 1.8 µg/mL | 164 to 167 °C |  | COc1cc(-c2[nH]c(C3CCC(F)(F)CC3)nc2Cl)ccc1OCc1ccc(C(F)(F)F)nc1 [Example 203] | 5.47
> 88 µg/mL | 7 µg/mL (≈ 15.9 µM) | 109 to 124 °C |  | COc1cc(OCc2ncc(C)cc2C)ccc1-c1nc(-c2ccc(F)nc2)[nH]c1Cl [Example 206] | 2.75
88.3 µg/mL (≈ 194 µM) | 1.2 µg/mL (≈ 2.63 µM) | 159 to 162 °C |  | COc1cc(-c2[nH]c(C3CCC3)nc2Cl)ccc1OCc1ncc(C(F)(F)F)cc1F [Example 374] | 2.6
< 0.3 µg/mL | 27.6 µg/mL (≈ 56.1 µM) | 137 to 139 °C |  | COc1cc(O[C@H](C)c2ccc(C(F)(F)F)cc2)ccc1-c1[nH]c(-c2ccc(F)nc2)nc1Cl [Example 290] | 2.64
95.6 µg/mL (≈ 190 µM) | 1.5 µg/mL (≈ 2.99 µM) | 147 to 149 °C |  | COc1cc(OCc2ccc(C(F)(F)F)cn2)ccc1-c1[nH]c(C2CCC(F)(F)CC2)nc1Cl [Example 210] | 5.69
90 µg/mL (≈ 174 µM) | 2.6 µg/mL (≈ 5.02 µM) | 238 to 240 °C (dec.) |  | COc1cc(-c2[nH]c(C3C4CC5CC(C4)CC3C5)nc2Cl)ccc1OCc1ccc(C(F)(F)F)cn1 (stereo not drawn) [Example 201] | 2.45
8.8 µg/mL (≈ 17.9 µM) | 15.6 µg/mL (≈ 31.7 µM) | 148 to 150 °C |  | COc1cc(OC(C)c2ccc(C(F)(F)F)nc2)ccc1-c1[nH]c(-c2ccc(F)nc2)nc1Cl (stereo not drawn) [Example 239] | 2.39
 | 0.4 µg/mL (≈ 0.812 µM) | 166 to 169 °C | 83.4 µg/mL (≈ 169 µM) | COc1cc(OC(C)c2ccc(C(F)(F)F)cn2)ccc1-c1nc(-c2ccc(F)nc2)[nH]c1Cl (stereo not drawn) [Example 207] | 2.5
18.3 µg/mL (≈ 33.3 µM) | 1.1 µg/mL (≈ 2 µM) | 130 to 132 °C |  | COc1cc(OCc2ccc(C(F)(F)F)cn2)ccc1-c1c(Cl)nc(-c2ccc(Cl)nc2)n1CC1CC1 [Example 295] | 4.06
97.1 µg/mL (≈ 181 µM) | 0.6 µg/mL (≈ 1.12 µM) | 192 to 195 °C |  | COc1cc(OCc2ncc(C(F)(F)F)cc2F)ccc1-c1[nH]c(C2CC(F)(F)C2)nc1Br [Example 400] | 4.49
> 90 µg/mL | 0.5 µg/mL (≈ 1.11 µM) | 182 to 184 °C (dec.) |  | COc1cc(-c2[nH]c(C3CCCC3)nc2Cl)ccc1OCc1ccc(C(F)(F)F)cn1 [Example 194] | 3.92
85.9 µg/mL (≈ 199 µM) | 4.6 µg/mL (≈ 10.6 µM) | 174 to 177 °C |  | Fc1ccc(-c2ncc(-c3ccc(OCc4ncc(C(F)(F)F)cc4F)cc3)[nH]2)cn1 [Example 344] | 1.83
4.1 µg/mL (≈ 8.56 µM) | 0.5 µg/mL (≈ 1.04 µM) | 188 to 190 °C |  | COc1cc(OCc2cncc(C(F)(F)F)c2)ccc1-c1[nH]c(-c2ccc(F)nc2)nc1Cl [Example 279] | 3.63
17 µg/mL (≈ 35.9 µM) | < 0.3 µg/mL | 170 to 173 °C |  | COc1cc(OCc2ccc(C(F)(F)F)cc2)ccc1-c1nc(-c2ccc(Cl)cn2)[nH]c1C [Example 34] | 2.22
100 µg/mL (≈ 199 µM) | 0.4 µg/mL (≈ 0.792 µM) | 138 to 140 °C |  | COCn1cc(-c2ccc(OCc3ccc(C(F)(F)F)cn3)cc2OC)nc1-c1ccc(Cl)nc1 [Example 167] | 2.23
87.4 µg/mL (≈ 190 µM) | 23.1 µg/mL (≈ 50.3 µM) | 161 to 162 °C |  | COc1cc(OCc2ncccc2C#N)ccc1-c1[nH]c(C2CCC(F)(F)CC2)nc1Cl [Example 185] | 2.41
94.4 µg/mL (≈ 197 µM) | 4.9 µg/mL (≈ 10.2 µM) | 162 to 167 °C |  | COc1cc(OCc2c(F)cc(C(F)(F)F)c[n+]2[O-])ccc1-c1cnc(-c2ccc(F)nc2)[nH]1 [Example 316] | 2.53
105 µg/mL (≈ 191 µM) | 1.3 µg/mL (≈ 2.38 µM) | 158 to 160 °C |  | COc1cc(-c2[nH]c(C3CCCC(F)(F)C3)nc2Br)ccc1OCc1ccc(C(F)(F)F)cn1 (stereo not drawn) [Example 170] | 3.36
1.9 µg/mL (≈ 3.6 µM) | < 0.4 µg/mL | 202 to 204 °C |  | Oc1cc(OCc2ncc(C(F)(F)F)cc2F)ccc1-c1[nH]c(-c2ccc(F)nc2)nc1Br [Example 408] | 1.24
71.8 µg/mL (≈ 183 µM) | 2.9 µg/mL (≈ 7.41 µM) | 167 to 170 °C |  | COc1cc(OCc2cnc(C)cn2)ccc1-c1c[nH]c(-c2ccc(F)nc2)n1 [Example 122] | 1.7
96.3 µg/mL (≈ 193 µM) | < 0.4 µg/mL | 154 to 159 °C |  | COc1cc(OCc2ncc(C(F)(F)F)cc2F)ccc1-c1[nH]c(CCC(F)(F)F)nc1Cl [Example 394] | 2.39
79.7 µg/mL (≈ 191 µM) | 2.1 µg/mL (≈ 5.04 µM) | 166 to 169 °C |  | COc1cc(OCn2cccn2)ccc1-c1nc(-c2ccc(Cl)nc2)[nH]c1Cl [Example 213] | 2.04
> 100 µg/mL | 0.6 µg/mL (≈ 1.2 µM) | 162 to 164 °C |  | COc1cc(OCc2ncccc2C(F)(F)F)ccc1-c1[nH]c(C2CCC(F)(F)CC2)nc1Cl [Example 195] | 3.34
3.4 µg/mL (≈ 6.78 µM) | < 0.4 µg/mL | 158 to 160 °C |  | Fc1ccc(-c2nc(Cl)c(-c3ccc(OCc4ncc(C(F)(F)F)cc4F)cc3Cl)[nH]2)cn1 [Example 361] | 5.51
5.8 µg/mL (≈ 10.2 µM) | 13.6 µg/mL (≈ 23.8 µM) | 195 to 208 °C |  | COc1cc(OCc2ccc(C(F)(F)F)nc2)ccc1-c1[nH]c(-c2ccc(F)nc2)nc1I [Example 329] | 2.96
83.2 µg/mL (≈ 164 µM) | < 0.4 µg/mL | 142 to 147 °C |  | COc1cc(-c2[nH]c(C3CCC(F)(F)C3)nc2Cl)ccc1OCc1ncc(C(F)(F)F)cc1F (stereo not drawn) [Example 347] | 3.28
98.4 µg/mL (≈ 185 µM) | 2.4 µg/mL (≈ 4.51 µM) | 148 to 150 °C |  | COc1c(OCc2ccc(C(F)(F)F)nc2)ccc(-c2[nH]c(C3CCC(F)(F)CC3)nc2Cl)c1OC [Example 200] | 4.73
79.9 µg/mL (≈ 189 µM) | 72.9 µg/mL (≈ 172 µM) | 141 to 144 °C |  | COc1cc(OCc2ncc(C(F)(F)F)cc2F)ccc1-c1cnc(C(C)(C)C)[nH]1 [Example 379] | 2.87
0.8 µg/mL (≈ 1.58 µM) | < 0.4 µg/mL | 222 to 224 °C |  | COc1cc(OCc2ccc(C(F)(F)F)nc2)ccc1-c1cnc(-c2ccc(Br)nc2)[nH]1 [Example 388] | 2.13
